# Measurements published in patent publication US10633419B2, “Immunomodulators” (BRISTOL-MYERS SQUIBB COMPANY, priority 2014, dated 2020).
# Starred links: 1 amine or outer side, 2 acyl side, 3 side chain; linkers in the order of their positions; H or OH if unused. Positions of bridges follow the written chain, without caps; N, C: chain ends. Non-standard residues stand in square brackets, D forms with d. Residues, ends and D or L forms follow the SMILES beside them. *: point of attachment. Succinyl(O-RRR-αToc) = Cc1c(C)c2c(c(C)c1OC(=O)CCC(=O)*)CC[C@@](C)(CCC[C@H](C)CCC[C@H](C)CCCC(C)C)O2; Trp(1-CH2COOH) = N[C@@H](Cc1cn(CC(=O)O)c2ccccc12)C(=O)O; X21 = O=C([C@H](CC1=CC(CCCCCN[*:3])N=N1)N[*:1])[*:2]; X9 = O=C(O)CCCCCCCCCCCCCCCCC(=O)N[C@@H](CCN*)C(=O)O; βAsp = O=C(O)[C@H](CC(=O)[*:2])N[*:1]; Hyp = O=C(O)[C@@H]1C[C@@H](O)CN1; NMeNle = CCCC[C@H](NC)C(=O)O; Pip = O=C(O)[C@@H]1CCCCN1; NMeA = CN[C@@H](C)C(=O)O; Dab = NCC[C@H](N)C(=O)O; Dap = NC[C@H](N)C(=O)O; Ava = NCCCCC(=O)O
# Biological target: T1, PD-L1 (Homo sapiens, UniProt Q9NZQ7)
# T1 construct: hPDL1(19-239)-TVMV-His; made in house; host or cells: HEK293T
# Experiment: PD-1/PD-L1 Homogenous Time-Resolved Fluorescence (HTRF) binding assay (PD-1-Ig/PD-L1-His)
# Conditions: not given
# How it was run: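 HTRF competition in dPBS with 0.1% BSA and 0.05% Tween-20: 20 nM PD-1-Ig added after 15 min compound pre-incubation with 10 nM PD-L1-His, then another 15 min. Signal (665/620 nm) after 30 min with APC anti-His (20 nM) and Eu anti-Ig (1 nM).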
# T1 sequence (Q9NZQ7 with tags, fused parts or gaps): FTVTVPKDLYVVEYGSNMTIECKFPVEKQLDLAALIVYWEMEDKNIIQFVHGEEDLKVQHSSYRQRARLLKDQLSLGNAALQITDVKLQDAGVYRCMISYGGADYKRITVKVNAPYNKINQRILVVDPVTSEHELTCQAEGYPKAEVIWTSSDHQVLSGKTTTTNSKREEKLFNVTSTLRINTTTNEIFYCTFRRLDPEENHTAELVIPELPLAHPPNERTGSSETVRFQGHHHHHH
row,SMILES,IC50 [nM]
1,CCCC[C@H]1C(=O)N(C)[C@@H](CCCC)C(=O)N[C@@H](CCC(=O)O)C(=O)N[C@H](C(=O)NCC(=O)N[C@@H](CC2=CC(CCCCCNC(=O)CCC(=O)Oc3c(C)c(C)c4c(c3C)CC[C@@](C)(CCC[C@H](C)CCC[C@H](C)CCCC(C)C)O4)N=N2)C(=O)NCC(N)=O)CSCC(=O)N[C@@H](Cc2ccc(O)cc2)C(=O)N(C)[C@@H](C)C(=O)N[C@@H](CC(=O)O)C(=O)N2CCC[C@H]2C(=O)N[C@@H](Cc2c[nH]cn2)C(=O)N[C@@H](CCCCN)C(=O)N2C[C@H](O)C[C@H]2C(=O)N[C@@H](Cc2c[nH]c3ccccc23)C(=O)N[C@@H](CCCCN)C(=O)N[C@@H](Cc2c[nH]c3ccccc23)C(=O)N1C (some centres unmarked) [Example 14051] ({CH2CO}-Y[NMeA]DPHK[Hyp]WKW[NMeNle][NMeNle]ECG[X21](Succinyl(O-RRR-αToc))G-NH2; thioether N-14),100 to 1600
2,CCCC[C@H]1C(=O)N(C)[C@@H](CCCC)C(=O)N[C@@H](CCC(=O)O)C(=O)N[C@H](C(=O)NCC(=O)N[C@@H](Cc2cn(CCOCCOCCOCCOCCOCCOCCOCCOC(=O)CCC(=O)Oc3c(C)c(C)c4c(c3C)CC[C@@](C)(CCC[C@H](C)CCC[C@H](C)CCCC(C)C)O4)nn2)C(=O)NCC(N)=O)CSCC(=O)N[C@@H](Cc2ccc(O)cc2)C(=O)N(C)[C@@H](C)C(=O)N[C@@H](CC(=O)O)C(=O)N2CCC[C@H]2C(=O)N[C@@H](Cc2c[nH]cn2)C(=O)N[C@@H](CCCCN)C(=O)N2C[C@H](O)C[C@H]2C(=O)N[C@@H](Cc2c[nH]c3ccccc23)C(=O)N[C@@H](CCCCN)C(=O)N[C@@H](Cc2c[nH]c3ccccc23)C(=O)N1C [Example 14052],10 to 99
3,CCCC[C@H]1C(=O)N(C)[C@@H](CCCC)C(=O)N[C@@H](CCC(=O)O)C(=O)N[C@H](C(=O)NCC(=O)N[C@@H](Cc2cn(CCOCCOCCOCCOCCOCCOC(=O)CCC(=O)Oc3c(C)c(C)c4c(c3C)CC[C@@](C)(CCC[C@H](C)CCC[C@H](C)CCCC(C)C)O4)nn2)C(=O)NCC(N)=O)CSCC(=O)N[C@@H](Cc2ccc(O)cc2)C(=O)N(C)[C@@H](C)C(=O)N[C@@H](CC(=O)O)C(=O)N2CCC[C@H]2C(=O)N[C@@H](Cc2c[nH]cn2)C(=O)N[C@@H](CCCCN)C(=O)N2C[C@H](O)C[C@H]2C(=O)N[C@@H](Cc2c[nH]c3ccccc23)C(=O)N[C@@H](CCCCN)C(=O)N[C@@H](Cc2c[nH]c3ccccc23)C(=O)N1C [Example 14053],100 to 1600
4,CCCC[C@H]1C(=O)N(C)[C@@H](CCCC)C(=O)N[C@@H](CCC(=O)O)C(=O)N[C@H](C(=O)NCC(=O)N[C@@H](Cc2cn(CCCCCNC(=O)CCC(=O)Oc3c(C)c(C)c4c(c3C)CC[C@@](C)(CCC[C@H](C)CCC[C@H](C)CCCC(C)C)O4)nn2)C(=O)N[C@@H](CC(=O)O)C(N)=O)CSCC(=O)N[C@@H](Cc2ccc(O)cc2)C(=O)N(C)[C@@H](C)C(=O)N[C@@H](CC(=O)O)C(=O)N2CCC[C@H]2C(=O)N[C@@H](Cc2c[nH]cn2)C(=O)N[C@@H](CCCCN)C(=O)N2C[C@H](O)C[C@H]2C(=O)N[C@@H](Cc2c[nH]c3ccccc23)C(=O)N[C@@H](CCCCN)C(=O)N[C@@H](Cc2c[nH]c3ccccc23)C(=O)N1C [Example 14056],100 to 1600
5,CCCC[C@H]1C(=O)N(C)[C@@H](CCCC)C(=O)N[C@@H](CCCNC(=N)N)C(=O)N[C@H](C(=O)NCC(=O)N[C@@H](Cc2cn(CCCCCNC(=O)CCC(=O)Oc3c(C)c(C)c4c(c3C)CC[C@@](C)(CCC[C@H](C)CCC[C@H](C)CCCC(C)C)O4)nn2)C(N)=O)CSCC(=O)N[C@@H](Cc2ccc(O)cc2)C(=O)N(C)[C@@H](C)C(=O)N[C@@H](CC(N)=O)C(=O)N2CCC[C@H]2C(=O)N[C@@H](CN)C(=O)N[C@@H](CC(C)C)C(=O)N2C[C@H](O)C[C@H]2C(=O)N[C@@H](Cc2c[nH]c3ccccc23)C(=O)N[C@@H](CO)C(=O)N[C@@H](Cc2csc3ccccc23)C(=O)N1C [Example 14058],100 to 1600
6,CCCC[C@H]1C(=O)N(C)[C@@H](CCCC)C(=O)N[C@@H](CCC(=O)O)C(=O)N[C@H](C(=O)NCC(=O)N[C@@H](Cc2cn(CCOCCOCCOCCOC(=O)CCC(=O)Oc3c(C)c(C)c4c(c3C)CC[C@@](C)(CCC[C@H](C)CCC[C@H](C)CCCC(C)C)O4)nn2)C(=O)NCC(N)=O)CSCC(=O)N[C@@H](Cc2ccc(O)cc2)C(=O)N(C)[C@@H](C)C(=O)N[C@@H](CC(=O)O)C(=O)N2CCC[C@H]2C(=O)N[C@@H](Cc2c[nH]cn2)C(=O)N[C@@H](CCCCN)C(=O)N2C[C@H](O)C[C@H]2C(=O)N[C@@H](Cc2c[nH]c3ccccc23)C(=O)N[C@@H](CCCCN)C(=O)N[C@@H](Cc2c[nH]c3ccccc23)C(=O)N1C [Example 14060],100 to 1600

# Same assay, conditions: inhibition of PD-1-Ig binding to PD-L1-TVMV-His; value given as range class; read-out: HTRF IC50
row,SMILES,IC50 [nM]
1,CCCC[C@H]1C(=O)N(C)[C@@H](CCCC)C(=O)N[C@@H](CCC(=O)O)C(=O)N[C@H](C(=O)NCC(=O)N[C@@H](Cc2cn(CCOCCOCCOCCOC)nn2)C(=O)NCC(N)=O)CSCC(=O)N[C@@H](Cc2ccc(O)cc2)C(=O)N(C)[C@@H](C)C(=O)N[C@@H](CC(=O)O)C(=O)N2CCC[C@H]2C(=O)N[C@@H](Cc2c[nH]cn2)C(=O)N[C@@H](CCCCN)C(=O)N2C[C@H](O)C[C@H]2C(=O)N[C@@H](Cc2c[nH]c3ccccc23)C(=O)N[C@@H](CCCCN)C(=O)N[C@@H](Cc2c[nH]c3ccccc23)C(=O)N1C [Example 14063],10 to 99
2,CCCC[C@H]1C(=O)N(C)[C@@H](CCCC)C(=O)N[C@@H](CCCNC(=N)N)C(=O)N[C@H](C(=O)NCC(=O)N[C@@H](Cc2cn(CC[C@H](NC(=O)CCCCCCCCCCCCCCC(=O)O)C(=O)O)nn2)C(N)=O)CSCC(=O)N[C@@H](Cc2ccc(O)cc2)C(=O)N(C)[C@@H](C)C(=O)N[C@@H](CC(N)=O)C(=O)N2CCC[C@H]2C(=O)N[C@@H](CN)C(=O)N[C@@H](CC(C)C)C(=O)N2C[C@H](O)C[C@H]2C(=O)N[C@@H](Cc2c[nH]c3ccccc23)C(=O)N[C@@H](CO)C(=O)N[C@@H](Cc2c[nH]c3ccccc23)C(=O)N1C [Example 14066],0.3 to 9.9

# The next lines start with the values.
row,IC50 [nM],SMILES
1,0.3 to 9.9,CCCC[C@H]1C(=O)N(C)[C@@H](CCCC)C(=O)N[C@@H](CC(C)C)C(=O)N[C@H](C(=O)NCC(=O)N[C@@H](CC(=O)NCCCCC(=O)NCC[C@H](NC(=O)CCCCCCCCCCCCCCCCC(=O)O)C(=O)O)C(=O)O)CSCC(=O)N[C@@H](Cc2ccc(O)cc2)C(=O)N2CCCC[C@H]2C(=O)N[C@@H](CC(N)=O)C(=O)N2CCC[C@H]2C(=O)N[C@@H](CN)C(=O)N[C@@H](CC(C)C)C(=O)N2C[C@H](O)C[C@H]2C(=O)N[C@@H](Cc2c[nH]c3ccccc23)C(=O)N[C@@H](CCN)C(=O)N[C@@H](Cc2cn(CC(=O)O)c3ccccc23)C(=O)N1C [Example 13164] ({CH2CO}-Y[Pip]NP[Dap]L[Hyp]W[Dab][Trp(1-CH2COOH)][NMeNle][NMeNle]LCG[βAsp][Ava]-X9; thioether N-14)
2,10 to 99,CCCCCCCCCCCCCCCC(=O)N[C@@H](CCn1cc(C[C@H](NC(=O)CNC(=O)[C@@H]2CSCC(=O)N[C@@H](Cc3ccc(O)cc3)C(=O)N(C)[C@@H](C)C(=O)N[C@@H](CC(=O)O)C(=O)N3CCC[C@H]3C(=O)N[C@@H](Cc3c[nH]cn3)C(=O)N[C@@H](CCCCN)C(=O)N3C[C@H](O)C[C@H]3C(=O)N[C@@H](Cc3c[nH]c4ccccc34)C(=O)N[C@@H](CCCCN)C(=O)N[C@@H](Cc3c[nH]c4ccccc34)C(=O)N(C)[C@@H](CCCC)C(=O)N(C)[C@@H](CCCC)C(=O)N[C@@H](CCC(=O)O)C(=O)N2)C(=O)NCC(N)=O)nn1)C(=O)O [Example 14059]
3,10 to 99,CCCCCCCCCCCCCCCC(=O)N[C@@H](CCn1cc(C[C@H](NC(=O)CNC(=O)[C@@H]2CSCC(=O)N[C@@H](Cc3ccc(O)cc3)C(=O)N(C)[C@@H](C)C(=O)N[C@@H](CC(=O)O)C(=O)N3CCC[C@H]3C(=O)N[C@@H](Cc3c[nH]cn3)C(=O)N[C@@H](CCCCN)C(=O)N3C[C@H](O)C[C@H]3C(=O)N[C@@H](Cc3c[nH]c4ccccc34)C(=O)N[C@@H](CCCCN)C(=O)N[C@@H](Cc3c[nH]c4ccccc34)C(=O)N(C)[C@@H](CCCC)C(=O)N(C)[C@@H](CCCC)C(=O)N[C@@H](CCC(=O)O)C(=O)N2)C(=O)N[C@@H](CC(=O)O)C(N)=O)nn1)C(=O)O [Example 14061]
4,10 to 99,CCCCCCCCCCCCCCCC(=O)N[C@@H](CCn1cc(C[C@H](NC(=O)CNC(=O)[C@@H]2CSCC(=O)N[C@@H](Cc3ccc(O)cc3)C(=O)N(C)[C@@H](C)C(=O)N[C@@H](CC(=O)O)C(=O)N3CCC[C@H]3C(=O)N[C@@H](Cc3c[nH]cn3)C(=O)N[C@@H](CCC(N)=O)C(=O)N3C[C@H](O)C[C@H]3C(=O)N[C@@H](Cc3c[nH]c4ccccc34)C(=O)N[C@@H](CO)C(=O)N[C@@H](Cc3c[nH]c4ccccc34)C(=O)N(C)[C@@H](CCCC)C(=O)N(C)[C@@H](CCCC)C(=O)N[C@@H](CCC(=O)O)C(=O)N2)C(=O)NCC(N)=O)nn1)C(=O)O [Example 14062]
5,0.3 to 9.9,CCCC[C@H]1C(=O)N(C)[C@@H](CCCC)C(=O)N[C@@H](CCC(=O)O)C(=O)N[C@H](C(=O)NCC(=O)N[C@@H](Cc2cn(CC[C@H](NC(=O)CCCCCCCCCCCCCCC(=O)O)C(=O)O)nn2)C(=O)NCC(N)=O)CSCC(=O)N[C@@H](Cc2ccc(O)cc2)C(=O)N(C)[C@@H](C)C(=O)N[C@@H](CC(=O)O)C(=O)N2CCC[C@H]2C(=O)N[C@@H](Cc2c[nH]cn2)C(=O)N[C@@H](CCCCN)C(=O)N2C[C@H](O)C[C@H]2C(=O)N[C@@H](Cc2c[nH]c3ccccc23)C(=O)N[C@@H](CCCCN)C(=O)N[C@@H](Cc2c[nH]c3ccccc23)C(=O)N1C [Example 14064]
6,10 to 99,CCCC[C@H]1C(=O)N(C)[C@@H](CCCC)C(=O)N[C@@H](CCC(=O)O)C(=O)N[C@H](C(=O)NCC(=O)N[C@@H](Cc2cn(CC[C@H](NC(=O)CCCCCCCCCCCCCCC(=O)O)C(=O)O)nn2)C(=O)N[C@@H](CC(=O)O)C(N)=O)CSCC(=O)N[C@@H](Cc2ccc(O)cc2)C(=O)N(C)[C@@H](C)C(=O)N[C@@H](CC(=O)O)C(=O)N2CCC[C@H]2C(=O)N[C@@H](Cc2c[nH]cn2)C(=O)N[C@@H](CCCCN)C(=O)N2C[C@H](O)C[C@H]2C(=O)N[C@@H](Cc2c[nH]c3ccccc23)C(=O)N[C@@H](CCCCN)C(=O)N[C@@H](Cc2c[nH]c3ccccc23)C(=O)N1C [Example 14065]
